Laboratory results from ChEMBL document CHEMBL1201862, “PubChem BioAssay data set” (2004).
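Step 1: Grow cells in 96-well plates. Step 2: Expose to compound for 48 hours at 5 concentrations. Step 3: Interpolate endpoints linearly; if unreached, use highest concentration. At the GI50, growth is halved.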 Activity calls are given as the source filed them. Rule as the data show it: active = GI50 up to about 1.1 µM and inactive = higher.

What was measured:
Assay in all cases: growth of human tumour cells (NCI), 48 h
OVCAR-3 = test system: OVCAR-3
OVCAR-5 = test system: OVCAR-5
LOX IMVI = test system: LOX IMVI
NCI-H23 = test system: NCI-H23
A549 = test system: A549
COLO 205 = test system: COLO 205
786-0 = test system: 786-0
IGROV-1 = test system: IGROV-1
DMS-114 = test system: DMS-114
CAKI-1 = test system: CAKI-1
MCF7 = test system: MCF7
PC-3 = test system: PC-3
MDA-N = test system: MDA-N
Hs-578T = test system: Hs-578T
NCI/ADR-RES = test system: NCI/ADR-RES
MDA-MB-435 = test system: MDA-MB-435
T47D = test system: T47D
DU-145 = test system: DU-145
BT-549 = test system: BT-549
DMS-273 = test system: DMS-273

| SMILES | GI50 (OVCAR-3) | GI50 (OVCAR-5) | GI50 (LOX IMVI) | GI50 (NCI-H23) | GI50 (A549) | GI50 (COLO 205) | GI50 (786-0) | GI50 (IGROV-1) | GI50 (DMS-114) | GI50 (CAKI-1) | GI50 (MCF7) | GI50 (PC-3) | GI50 (MDA-N) | GI50 (Hs-578T) | GI50 (NCI/ADR-RES) | GI50 (MDA-MB-435) | GI50 (T47D) | GI50 (DU-145) | GI50 (BT-549) | GI50 (DMS-273) |
| --- | --- | --- | --- | --- | --- | --- | --- | --- | --- | --- | --- | --- | --- | --- | --- | --- | --- | --- | --- | --- |
| CCOc1ccccc1NC(=O)CCc1nnc(S)[nH]1 | > 100 µM (inactive) | > 100 µM (inactive) | > 100 µM (inactive) | > 100 µM (inactive) | > 100 µM (inactive) | > 100 µM (inactive) | > 100 µM (inactive) | > 100 µM (inactive) | 59.7 µM (inactive) | > 100 µM (inactive) |  |  |  |  |  |  |  |  |  |  |
| Nc1ccc(-c2nc3ccccc3s2)cc1 | 13.3 µM (inactive) | 18.7 µM (inactive) | 16.8 µM (inactive) | 18.8 µM (inactive) | 23 µM (inactive) | 23.8 µM (inactive) | 16.2 µM (inactive) | 18.5 µM (inactive) | 17.7 µM (inactive) | 24.2 µM (inactive) | 19.1 µM (inactive) | 14.9 µM (inactive) | 19.5 µM (inactive) | 36.1 µM (inactive) | 22.6 µM (inactive) | 17.9 µM (inactive) | 20.7 µM (inactive) | 16.4 µM (inactive) | 14.9 µM (inactive) |  |
| CC(=O)c1ccc(OCC(O)CO)cc1 (stereo unspecified) | > 100 µM (inactive) | > 100 µM (inactive) |  | > 100 µM (inactive) | 94.2 µM (inactive) | 35.6 µM (inactive) | 25.6 µM (inactive) | > 100 µM (inactive) | 47 µM (inactive) | > 100 µM (inactive) |  |  |  |  |  |  |  |  |  | > 100 µM (inactive) |
| CCOC(=O)[N-]c1ccc(S(=O)(=O)[O+](C)CCl)cc1.CCOC(=O)[N-]c1ccc(S(=O)(=O)[O+](C)CCl)cc1.NC(=O)N=O.NC(=O)OCCCl |  | > 100 µM (inactive) | > 100 µM (inactive) | > 100 µM (inactive) | > 100 µM (inactive) | > 100 µM (inactive) | > 100 µM (inactive) | > 100 µM (inactive) | > 100 µM (inactive) | > 100 µM (inactive) |  |  |  |  |  |  |  |  |  |  |
| O=C1Sc2ccccc2C(=O)N2CCSC12 (stereo unspecified) | > 100 µM (inactive) | > 100 µM (inactive) | > 100 µM (inactive) | > 100 µM (inactive) |  | > 100 µM (inactive) |  | > 10 µM (inactive) | > 100 µM (inactive) |  |  |  |  |  |  |  |  |  |  | > 100 µM (inactive) |
| NCc1ccccc1C1CSCSC1 | > 100 µM (inactive) |  | > 100 µM (inactive) | > 100 µM (inactive) | > 100 µM (inactive) |  |  |  | > 100 µM (inactive) |  |  |  |  |  |  |  |  |  |  | > 100 µM (inactive) |
| CC1=C(C(=O)NCc2ccccc2)C(c2ccc(N(C)C)cc2)C(C(=O)NCc2ccccc2)=C(C)N1 | > 100 µM (inactive) | > 100 µM (inactive) |  | > 100 µM (inactive) | > 100 µM (inactive) | > 100 µM (inactive) | > 100 µM (inactive) | > 100 µM (inactive) | > 100 µM (inactive) | > 100 µM (inactive) |  |  |  |  |  |  |  |  |  | > 100 µM (inactive) |
| CCOC(=O)C12CCC(=O)C=C1[C@@H](C)C(=O)CC2 (stereo partly specified) | > 100 µM (inactive) | > 100 µM (inactive) | > 100 µM (inactive) | > 100 µM (inactive) |  | > 100 µM (inactive) |  | > 100 µM (inactive) | > 100 µM (inactive) |  |  |  |  |  |  |  |  |  |  | > 100 µM (inactive) |
| CC1C=CN(N(C)C)C2=C1C(=O)c1cnccc1C2=O (stereo unspecified) | 0.792 µM (active) | 1.37 µM (inactive) | 0.129 µM (active) | 0.261 µM (active) | 0.331 µM (active) | 1.12 µM (inactive) | 0.195 µM (active) | 0.244 µM (active) |  | 0.108 µM (active) | 0.274 µM (active) | 1.49 µM (inactive) | 0.133 µM (active) | 0.693 µM (active) | 0.927 µM (active) | 0.186 µM (active) | 1.83 µM (inactive) | 0.372 µM (active) | 0.355 µM (active) |  |
| COc1ccc(C(=O)N=C2N(c3ccccc3)C(=N/c3ccccc3)/C(=N\c3ccccc3)N2c2ccccc2)cc1 | > 100 µM (inactive) | > 75.7 µM (inactive) | 49 µM (inactive) | 39.3 µM (inactive) | 30.3 µM (inactive) | > 100 µM (inactive) | 17.9 µM (inactive) | 54 µM (inactive) |  | 39.9 µM (inactive) | > 100 µM (inactive) | 16.8 µM (inactive) | 19.2 µM (inactive) | 7.78 µM (inactive) | > 100 µM (inactive) | 88.3 µM (inactive) | > 58.6 µM (inactive) | > 100 µM (inactive) | 13.2 µM (inactive) |  |
| O=C1c2ccccc2C2(O)NC(=S)N(c3ccccc3)C12O (stereo unspecified) | > 100 µM (inactive) | > 100 µM (inactive) | > 100 µM (inactive) | > 100 µM (inactive) | > 100 µM (inactive) | > 100 µM (inactive) | > 100 µM (inactive) | > 100 µM (inactive) | > 100 µM (inactive) | > 100 µM (inactive) |  |  |  |  |  |  |  |  |  |  |
| Cc1nc(O)nc2c1C(NCCCN(C)C)c1cc(Cl)ccc1N2 (stereo unspecified) | 17.4 µM (inactive) |  | 11.9 µM (inactive) | 17.5 µM (inactive) | 13.9 µM (inactive) | 13.2 µM (inactive) | 14.6 µM (inactive) | 16.2 µM (inactive) | 14.7 µM (inactive) |  |  |  |  |  |  |  |  |  |  | 12.7 µM (inactive) |
| CCCCCC(/C=C/[C@@H]1CC(=O)C[C@H]1O[Si](C)(C)C(C)(C)C)OCOCCOC (stereo partly specified) | 3.93 µM (inactive) | 10 µM (inactive) | 2.7 µM (inactive) | 3.56 µM (inactive) | 9.55 µM (inactive) | 5.2 µM (inactive) | 3.74 µM (inactive) | 3.24 µM (inactive) |  | 3.07 µM (inactive) | 3.65 µM (inactive) | 4.16 µM (inactive) | 3.41 µM (inactive) | 2.9 µM (inactive) | 2.94 µM (inactive) | 2.02 µM (inactive) | 11.1 µM (inactive) | 16.3 µM (inactive) | 3.26 µM (inactive) |  |
| Cc1nc2c(n1-c1ccccc1)C(=O)c1ccccc1C2=O | 20.7 µM (inactive) | > 100 µM (inactive) |  | 22.4 µM (inactive) | 38.5 µM (inactive) |  | 76.7 µM (inactive) |  | 21.6 µM (inactive) | 70.8 µM (inactive) |  |  |  |  |  |  |  |  |  | 39.4 µM (inactive) |
| CC[C@@H]1CC[C@@H]2[C@H](CC[C@]3(C)[C@@H](OC(C)=O)CC[C@@H]23)[C@H]1COC(C)=O | 17.4 µM (inactive) | 20.1 µM (inactive) | 17.4 µM (inactive) | 27.2 µM (inactive) | 22.1 µM (inactive) | 19.1 µM (inactive) | 45.1 µM (inactive) | 32.7 µM (inactive) |  | 29 µM (inactive) | 31.6 µM (inactive) | 30.1 µM (inactive) | 24.9 µM (inactive) | 25.1 µM (inactive) | 26.7 µM (inactive) | 22.5 µM (inactive) | 32.1 µM (inactive) | > 100 µM (inactive) | 32.1 µM (inactive) |  |
| Cc1cc(O)c(C(=O)CC2(O)C(=O)Nc3c(Cl)cc(Cl)cc32)c(=O)o1 (stereo unspecified) | > 100 µM (inactive) | > 100 µM (inactive) |  | > 100 µM (inactive) | > 100 µM (inactive) | > 100 µM (inactive) | > 100 µM (inactive) | > 100 µM (inactive) |  | > 100 µM (inactive) |  |  |  |  |  |  |  |  |  | 41.7 µM (inactive) |
| CC(=O)Nc1ccc(/C=C(\NC(=O)c2ccccc2)C(=O)NNS(=O)(=O)c2ccc(C)cc2)cc1 | > 100 µM (inactive) | > 100 µM (inactive) | 16.4 µM (inactive) | > 100 µM (inactive) | > 100 µM (inactive) | 25.8 µM (inactive) | > 10 µM (inactive) | > 100 µM (inactive) |  | > 100 µM (inactive) |  |  |  |  |  |  |  |  |  | 18.2 µM (inactive) |
| COc1ccc(C[C@@H]2OC3(C=CC(=O)CC3Sc3ccccc3)O[C@H]2Cc2ccc(OC)cc2)cc1 (stereo partly specified) | 1.64 µM (inactive) | 1.14 µM (inactive) | 0.458 µM (active) | 1.71 µM (inactive) | 3.23 µM (inactive) | 1.85 µM (inactive) | 0.151 µM (active) | 0.904 µM (active) |  | 2.05 µM (inactive) | 0.388 µM (active) | 1.72 µM (inactive) | 1.52 µM (inactive) | 1.41 µM (inactive) | 1.48 µM (inactive) | 1.9 µM (inactive) | 0.813 µM (active) | 2.23 µM (inactive) | 0.223 µM (active) |  |
| Oc1cc(-c2ccc(Oc3ccccc3)cc2)nc2cc3c(cc12)OCO3 | > 100 µM (inactive) |  | > 100 µM (inactive) | > 100 µM (inactive) | > 100 µM (inactive) | > 100 µM (inactive) | > 100 µM (inactive) | > 100 µM (inactive) | > 100 µM (inactive) |  |  |  |  |  |  |  |  |  |  | > 100 µM (inactive) |
| CCOC(=O)/C(=C/c1ccco1)P(=O)(OCC)OCC |  | > 100 µM (inactive) | > 100 µM (inactive) | > 100 µM (inactive) | > 100 µM (inactive) | > 100 µM (inactive) | > 100 µM (inactive) | > 100 µM (inactive) | > 100 µM (inactive) | > 100 µM (inactive) |  |  |  |  |  |  |  |  |  |  |
| COC(=O)CC(=O)OSc1ccccc1 | 14.6 µM (inactive) | 45 µM (inactive) | 12.6 µM (inactive) | 24.7 µM (inactive) | 12.5 µM (inactive) | 19.5 µM (inactive) |  | 7.71 µM (inactive) | 11.6 µM (inactive) |  |  |  |  |  |  |  |  |  |  | 22.7 µM (inactive) |
| CCc1nc(N)c2nc(-c3ccc(C#N)cc3)oc2n1 | > 100 µM (inactive) | > 100 µM (inactive) | > 100 µM (inactive) | > 100 µM (inactive) | > 100 µM (inactive) | > 100 µM (inactive) | > 100 µM (inactive) | > 100 µM (inactive) |  | > 100 µM (inactive) | > 100 µM (inactive) | > 100 µM (inactive) | > 100 µM (inactive) | > 100 µM (inactive) | > 100 µM (inactive) | > 100 µM (inactive) | > 100 µM (inactive) | > 100 µM (inactive) | > 100 µM (inactive) |  |
